Test results taken from PubChem BioAssay AID2060908 (Molecular Pharmacology Branch, DTP, NCI, 2025).

Tested on: 186277-243-T-J2-PDC complex spheroids, viability
Experiment: Anticancer human tumor 186277-243-T-J2-PDC patient-derived colon adenocarcinoma cell line growth inhibition [RAS]
Conditions: for IC50: curve of first compound; for viability, T/C: stronger effect = lower value; active = viability on the fitted dose curve at most 10% of control; inactive = the rest
Method in brief: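 Agents were tested in combination matrices in half-log decrements from a top concentration at or near clinical Cmax (10 microM if undetermined). Targets were multi-cell spheroids of tumour lines plus HUVEC and MSC stromal cells.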

[1] = second compound 0.0316 µM, first compound 0.0316 µM
[2] = second compound 0.0316 µM, first compound 0.1 µM
[3] = second compound 0.0316 µM, first compound 0.316 µM
[4] = second compound 0.0316 µM, first compound 1 µM
[5] = second compound 0.1 µM, first compound 0.0316 µM
[6] = second compound 0.1 µM, first compound 0.1 µM
[7] = second compound 0.1 µM, first compound 0.316 µM
[8] = second compound 0.1 µM, first compound 1 µM
[9] = second compound 0.316 µM, first compound 0.0316 µM
[10] = second compound 0.316 µM, first compound 0.1 µM
[11] = second compound 0.316 µM, first compound 0.316 µM
[12] = second compound 0.316 µM, first compound 1 µM
[13] = second compound 1 µM, first compound 0.0316 µM
[14] = second compound 1 µM, first compound 0.1 µM
[15] = second compound 1 µM, first compound 0.316 µM
[16] = second compound 1 µM, first compound 1 µM
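Note: spheroids exposed to compounds for 7 days before viability read.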

CC(=O)OC12COC1CC(O)C1(C)C(=O)C(O)C3=C(C)C(OC(=O)C(O)C(NC(=O)OC(C)(C)C)c4ccccc4)CC(O)(C(OC(=O)c4ccccc4)C21)C3(C)C (stereo unspecified) + C=CC(=O)N1CCN(c2nc(OCC3CCCN3C)nc3c(F)c(-c4nc(N)cc(C)c4C(F)(F)F)c(Cl)cc23)C(C)C1
active: viability, T/C (second compound 0.00316 µM, first compound 0.0316 µM) 8.38% | viability, T/C (second compound 0.00316 µM, first compound 0.1 µM) 7.03% | viability, T/C (second compound 0.00316 µM, first compound 0.316 µM) 7.44% | viability, T/C (second compound 0.00316 µM, first compound 1 µM) 6.91% | viability, T/C (second compound 0.00316 µM, first compound 3.16 µM) 7.11% | viability, T/C (second compound 0.00316 µM, first compound 10 µM) 7.02% | viability, T/C (second compound 0.01 µM, first compound 0.0316 µM) 8.84% | viability, T/C (second compound 0.01 µM, first compound 0.1 µM) 6.99% | viability, T/C (second compound 0.01 µM, first compound 0.316 µM) 7.34% | viability, T/C (second compound 0.01 µM, first compound 1 µM) 7.25% | viability, T/C (second compound 0.01 µM, first compound 3.16 µM) 7.21% | viability, T/C (second compound 0.01 µM, first compound 10 µM) 6.02% | viability, T/C [1] 8.72% | viability, T/C [2] 7.79% | viability, T/C [3] 7.18% | viability, T/C [4] 7.01% | viability, T/C (second compound 0.0316 µM, first compound 3.16 µM) 6.46% | viability, T/C (second compound 0.0316 µM, first compound 10 µM) 5.97% | viability, T/C [5] 8.28% | viability, T/C [6] 7.95% | viability, T/C [7] 8.02% | viability, T/C [8] 7.09% | viability, T/C (second compound 0.1 µM, first compound 3.16 µM) 8.08% | viability, T/C (second compound 0.1 µM, first compound 10 µM) 6.87% | viability, T/C [9] 8.75% | viability, T/C [10] 8.38% | viability, T/C [11] 10.2% | viability, T/C [12] 8.18% | viability, T/C (second compound 0.316 µM, first compound 3.16 µM) 8.14% | viability, T/C (second compound 0.316 µM, first compound 10 µM) 6.78% | viability, T/C [14] 9.42% | viability, T/C [15] 9.31% | viability, T/C [16] 8.34% | viability, T/C (second compound 1 µM, first compound 3.16 µM) 11.8% | viability, T/C (second compound 1 µM, first compound 10 µM) 9.17%
inactive: viability, T/C [13] 12%
< 31.6 nM: IC50 (second compound 0.00316 µM) | IC50 (second compound 0.01 µM) | IC50 (second compound 0.0316 µM) | IC50 (second compound 0.1 µM) | IC50 (second compound 0.316 µM) | IC50 (second compound 1 µM)

C[C@@H](NC(=O)c1ncnc(N)c1Cl)c1ncc(C(=O)Nc2cc(C(F)(F)F)c(Cl)cn2)s1 + CCn1c(-c2cc(N3CCN(C)CC3)cnc2C(C)OC)c2c3cc(ccc31)-c1csc(n1)CC(NC(=O)C1CC1C)C(=O)N1CCCC(N1)C(=O)OCC(C)(C)C2
< 31.6 nM: IC50 (second compound 0.03 µM) | IC50 (second compound 0.0949 µM) | IC50 (second compound 0.3 µM)
> 10000 nM: IC50 (second compound 0.000949 µM) | IC50 (second compound 0.003 µM)
3630 nM: IC50 (second compound 0.00949 µM)
active: viability, T/C (second compound 0.0949 µM, first compound 0.0316 µM) 9.22% | viability, T/C (second compound 0.0949 µM, first compound 0.1 µM) 10.4% | viability, T/C (second compound 0.0949 µM, first compound 0.316 µM) 10% | viability, T/C (second compound 0.0949 µM, first compound 1 µM) 9.11% | viability, T/C (second compound 0.0949 µM, first compound 3.16 µM) 8.59% | viability, T/C (second compound 0.0949 µM, first compound 10 µM) 7.09% | viability, T/C (second compound 0.3 µM, first compound 0.0316 µM) 7.68% | viability, T/C (second compound 0.3 µM, first compound 0.1 µM) 8.08% | viability, T/C (second compound 0.3 µM, first compound 0.316 µM) 7.77% | viability, T/C (second compound 0.3 µM, first compound 1 µM) 7.85% | viability, T/C (second compound 0.3 µM, first compound 3.16 µM) 7.78% | viability, T/C (second compound 0.3 µM, first compound 10 µM) 4.79%
inactive: viability, T/C (second compound 0.000949 µM, first compound 0.0316 µM) 104% | viability, T/C (second compound 0.000949 µM, first compound 0.1 µM) 87.5% | viability, T/C (second compound 0.000949 µM, first compound 0.316 µM) 88% | viability, T/C (second compound 0.000949 µM, first compound 1 µM) 88.7% | viability, T/C (second compound 0.000949 µM, first compound 3.16 µM) 85.9% | viability, T/C (second compound 0.000949 µM, first compound 10 µM) 73.6% | viability, T/C (second compound 0.003 µM, first compound 0.0316 µM) 108% | viability, T/C (second compound 0.003 µM, first compound 0.1 µM) 114% | viability, T/C (second compound 0.003 µM, first compound 0.316 µM) 109% | viability, T/C (second compound 0.003 µM, first compound 1 µM) 82.6% | viability, T/C (second compound 0.003 µM, first compound 3.16 µM) 93.2% | viability, T/C (second compound 0.003 µM, first compound 10 µM) 54.4% | viability, T/C (second compound 0.00949 µM, first compound 0.0316 µM) 61.7% | viability, T/C (second compound 0.00949 µM, first compound 0.1 µM) 83.8% | viability, T/C (second compound 0.00949 µM, first compound 0.316 µM) 78.6% | viability, T/C (second compound 0.00949 µM, first compound 1 µM) 71.4% | viability, T/C (second compound 0.00949 µM, first compound 3.16 µM) 54.2% | viability, T/C (second compound 0.00949 µM, first compound 10 µM) 19.8% | viability, T/C (second compound 0.03 µM, first compound 0.0316 µM) 21.2% | viability, T/C (second compound 0.03 µM, first compound 0.1 µM) 23.7% | viability, T/C (second compound 0.03 µM, first compound 0.316 µM) 25.3% | viability, T/C (second compound 0.03 µM, first compound 1 µM) 20.9% | viability, T/C (second compound 0.03 µM, first compound 3.16 µM) 16.9% | viability, T/C (second compound 0.03 µM, first compound 10 µM) 10%

CCN1CCN(Cc2ccc(Nc3ncc(F)c(-c4cc(F)c5nc(C)n(C(C)C)c5c4)n3)nc2)CC1 + C#Cc1c(F)ccc2cc(O)cc(-c3ncc4c(N5CC6CCC(C5)N6)nc(OCC56CCCN5CC(F)C6)nc4c3F)c12
inactive: viability, T/C (second compound 0.0316 µM, first compound 0.00316 µM) 84.9% | viability, T/C (second compound 0.0316 µM, first compound 0.01 µM) 69.9% | viability, T/C [1] 66.7% | viability, T/C [2] 67.2% | viability, T/C [3] 49.2% | viability, T/C [4] 22% | viability, T/C (second compound 0.1 µM, first compound 0.00316 µM) 65% | viability, T/C (second compound 0.1 µM, first compound 0.01 µM) 55.3% | viability, T/C [5] 41.7% | viability, T/C [6] 31.1% | viability, T/C [7] 24% | viability, T/C [8] 16.7% | viability, T/C (second compound 0.316 µM, first compound 0.00316 µM) 28.9% | viability, T/C (second compound 0.316 µM, first compound 0.01 µM) 25.2% | viability, T/C [9] 21.7% | viability, T/C [10] 16.6% | viability, T/C [11] 16.9% | viability, T/C [12] 13.1% | viability, T/C (second compound 1 µM, first compound 0.00316 µM) 13.1% | viability, T/C (second compound 1 µM, first compound 0.01 µM) 16.7% | viability, T/C [13] 14.2% | viability, T/C [14] 11.6% | viability, T/C [15] 15.6% | viability, T/C [16] 11.4% | viability, T/C (second compound 3.16 µM, first compound 0.00316 µM) 12.8% | viability, T/C (second compound 3.16 µM, first compound 0.01 µM) 10.5% | viability, T/C (second compound 3.16 µM, first compound 0.0316 µM) 9.68% | viability, T/C (second compound 3.16 µM, first compound 0.1 µM) 10.6% | viability, T/C (second compound 3.16 µM, first compound 0.316 µM) 11.5% | viability, T/C (second compound 3.16 µM, first compound 1 µM) 10.6% | viability, T/C (second compound 10 µM, first compound 0.00316 µM) 10.4%
14.9 nM: IC50 (second compound 0.1 µM)
active: viability, T/C (second compound 10 µM, first compound 0.01 µM) 8.81% | viability, T/C (second compound 10 µM, first compound 0.0316 µM) 10.7% | viability, T/C (second compound 10 µM, first compound 0.1 µM) 9.4% | viability, T/C (second compound 10 µM, first compound 0.316 µM) 9.61% | viability, T/C (second compound 10 µM, first compound 1 µM) 7.42%
< 3.16 nM: IC50 (second compound 0.316 µM) | IC50 (second compound 1 µM) | IC50 (second compound 3.16 µM) | IC50 (second compound 10 µM)
281 nM: IC50 (second compound 0.0316 µM)
